These results are taken from ChEMBL document CHEMBL1155186, “O-Spiro C-aryl glucosides as novel sodium-dependent glucose co-transporter 2 (SGLT2) inhibitors” (Bioorg Med Chem Lett, 2009).

Each structure is given as a SMILES string.

Assay [1] has as its target T1, Sodium/glucose cotransporter 2 (Homo sapiens) (UniProt P31639).
T1 sequence (whole entry): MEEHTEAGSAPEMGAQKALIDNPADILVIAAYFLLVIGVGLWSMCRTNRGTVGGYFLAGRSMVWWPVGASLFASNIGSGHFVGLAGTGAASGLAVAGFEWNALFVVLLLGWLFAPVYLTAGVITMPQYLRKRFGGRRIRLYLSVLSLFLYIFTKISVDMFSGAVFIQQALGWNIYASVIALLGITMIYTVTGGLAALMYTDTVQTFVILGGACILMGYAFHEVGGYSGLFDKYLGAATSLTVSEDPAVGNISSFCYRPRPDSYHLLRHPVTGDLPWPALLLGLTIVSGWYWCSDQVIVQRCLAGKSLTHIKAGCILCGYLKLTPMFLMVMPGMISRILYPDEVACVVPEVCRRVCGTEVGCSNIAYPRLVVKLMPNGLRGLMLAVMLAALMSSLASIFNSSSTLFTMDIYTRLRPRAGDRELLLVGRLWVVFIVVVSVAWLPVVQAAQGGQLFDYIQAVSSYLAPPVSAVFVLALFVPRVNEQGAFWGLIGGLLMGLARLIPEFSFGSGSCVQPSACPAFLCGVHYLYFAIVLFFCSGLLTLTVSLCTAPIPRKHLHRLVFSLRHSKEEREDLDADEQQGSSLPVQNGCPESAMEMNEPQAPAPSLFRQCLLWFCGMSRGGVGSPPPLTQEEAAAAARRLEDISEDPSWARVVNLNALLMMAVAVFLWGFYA
Particulars: 10 nM.
Description: Inhibition of human SGLT2 expressed in HEK293.ETN cells assessed as methyl-alpha-D-[U-14C]glucopyranoside uptake at 10 nM by scintillation counting

The target in assay [2] is T2, Sodium/glucose cotransporter 1 (Homo sapiens) (UniProt P13866).
T2 sequence (whole entry): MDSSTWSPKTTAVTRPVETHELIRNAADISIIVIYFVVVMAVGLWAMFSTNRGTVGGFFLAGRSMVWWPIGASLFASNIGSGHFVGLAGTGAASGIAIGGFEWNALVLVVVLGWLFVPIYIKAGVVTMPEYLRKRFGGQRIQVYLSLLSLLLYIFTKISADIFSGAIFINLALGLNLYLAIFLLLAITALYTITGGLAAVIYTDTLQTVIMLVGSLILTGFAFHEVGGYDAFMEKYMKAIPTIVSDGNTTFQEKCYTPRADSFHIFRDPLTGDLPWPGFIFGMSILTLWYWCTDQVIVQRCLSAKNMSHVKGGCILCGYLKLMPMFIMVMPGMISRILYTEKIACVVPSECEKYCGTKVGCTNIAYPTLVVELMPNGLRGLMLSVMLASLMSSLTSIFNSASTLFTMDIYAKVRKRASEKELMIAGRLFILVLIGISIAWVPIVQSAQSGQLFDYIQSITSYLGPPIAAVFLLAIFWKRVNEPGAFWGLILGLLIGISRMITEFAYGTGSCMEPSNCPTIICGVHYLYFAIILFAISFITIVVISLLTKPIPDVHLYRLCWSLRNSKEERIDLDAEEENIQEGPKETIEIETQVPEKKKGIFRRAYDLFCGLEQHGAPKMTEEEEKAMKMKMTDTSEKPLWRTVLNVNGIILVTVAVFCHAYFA
Particulars: COS-7, 10 uM.
Description: Inhibition of human SGLT1 expressed in african green monkey COS7 cells assessed as methyl-alpha-D-[U-14C]glucopyranoside uptake at 10 uM by scintillation counting

Take `CCOc1ccc(Cc2cc([C@@H]3O[C@H](CO)[C@@H](O)[C@H](O)[C@H]3O)ccc2Cl)cc1`: the figures for the inhibition in assay [1] and in assay [2] were 69.7% and 72.7%, respectively.
